Assay results taken from patent US9365522B2, “Pyrazole amide derivative” (AMGEN INC., priority 2015, dated 2016).

Target: T1, human RORγ-LBD (Homo sapiens, UniProt P51449)
T1 construct: made in house; host or cells: E. coli (BL-21)
T1 sequence (P51449 262-518): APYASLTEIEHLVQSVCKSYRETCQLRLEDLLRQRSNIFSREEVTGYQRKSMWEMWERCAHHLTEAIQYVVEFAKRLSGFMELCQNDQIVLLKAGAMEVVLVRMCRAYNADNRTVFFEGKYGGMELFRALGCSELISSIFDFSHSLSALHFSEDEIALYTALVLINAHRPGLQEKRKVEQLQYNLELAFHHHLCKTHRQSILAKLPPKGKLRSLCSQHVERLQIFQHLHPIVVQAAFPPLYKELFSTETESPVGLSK
Assay: ROR gamma coactivator peptide recruitment Alphascreen assay (RORγ-LBD binding to GRIP1 coactivator peptide)
Assay type: biochemical
Settings: 5 nM human RORγ-LBD, 30 nM 7-β-hydroxycholesterol, 50 nM biotinylated GRIP1 coactivator peptide, overnight incubation at room temperature; read-out: result (pIC50, RORγ coactivator peptide recruitment Alphascreen assay) (converted)
Summary of the method: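 Alphascreen proximity read-out after overnight room-temperature incubation, yielding pIC50 from 1-in-2 compound series (2.5% DMSO final). Mixture: 50 nM biotin-GRIP1 peptide, 30 nM 7-β-hydroxycholesterol agonist, 5 nM recombinant 6×His:Flag human RORγ-LBD (aa 262-518), 50 mM HEPES pH 7.4.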

IC50 [nM]	Structure (SMILES)
18.6	C[C@@H]1C[C@H](n2ncc(C(=O)N(CC(=O)c3c(Cl)cccc3Cl)CC3CC(C)(C)C3)c2C(F)(F)F)CC[C@@H]1C(=O)O [Example 570, (1S,2R,4R)-4-(4-((2-(2,6-dichlorophenyl)-2-oxoethyl)((3,3-dimethylcyclobutyl)methyl)carbamoyl)-5-(trifluoromethyl)-1H-pyrazol-1-yl)-2-methylcyclohexanecarboxylic acid]
6.92	O=C(c1cnn([C@H]2CC[C@H](C(=O)O)CC2)c1C(F)(F)F)N(CCc1ccc(Cl)cc1Cl)Cc1ccc(Cl)cc1 [Example 504, trans-4-(4-((4-chlorobenzyl)(2-(2,4-dichlorophenyl)ethyl)carbamoyl)-5-(trifluoromethyl)-1H-pyrazol-1-yl)cyclohexanecarboxylic acid]
251	Cc1cc(Cl)c(C(=O)CN(CC2CCC(C)(C)CC2)C(=O)c2cnn([C@H]3CC[C@](C)(C(=O)O)CC3)c2C(F)(F)F)c(Cl)n1 [Example 835, trans-4-(4-((2-(2,4-dichloro-6-methyl-3-pyridinyl)-2-oxoethyl)((4,4-dimethylcyclohexyl)methyl)carbamoyl)-5-(trifluoromethyl)-1H-pyrazol-1-yl)-1-methylcyclohexanecarboxylic acid]
4.07	C[C@]1(C(=O)O)CC[C@H](n2ncc(C(=O)N(CC(=O)c3c(Cl)cccc3Cl)CC3(F)CC4(CC4)C3)c2C(F)(F)F)CC1 [Example 713, (1r,4r)-4-(4-((2-(2,6-dichlorophenyl)-2-oxoethyl)((5-fluorospiro[2.3]hexan-5-yl)methyl)carbamoyl)-5-(trifluoromethyl)-1H-pyrazol-1-yl)-1-methylcyclohexanecarboxylic acid]
309	C[C@H]1C[C@](C)(C(=O)O)CC[C@H]1n1ncc(C(=O)N(CC(=O)c2c(Cl)cncc2Cl)CC(C)(C)C)c1C(F)(F)F (stereo in doubt) [Example 842, (1R,3S,4R)-4-(4-((2-(3,5-dichloro-4-pyridinyl)-2-oxoethyl)(2,2-dimethylpropyl)carbamoyl)-5-(trifluoromethyl)-1H-pyrazol-1-yl)-1,3-dimethylcyclohexanecarboxylic acid]
5.89	O=C(c1cnn([C@H]2CC[C@H](C(=O)O)CC2)c1C(F)(F)F)N(CCc1c(Cl)cccc1Cl)Cc1ccc(C(F)(F)F)cc1 [Example 526, trans-4-(4-((2-(2,6-dichlorophenyl)ethyl)(4-(trifluoromethyl)benzyl)carbamoyl)-5-(trifluoromethyl)-1H-pyrazol-1-yl)cyclohexanecarboxylic acid]
6.76	C[C@]1(C(=O)O)CC[C@H](n2ncc(C(=O)N(CC(=O)c3c(Cl)cc(F)cc3Cl)CC3(F)CC3)c2C(F)(F)F)CC1 [Example 690, trans-4-(4-((2-(2,6-dichloro-4-fluorophenyl)-2-oxoethyl)((1-fluorocyclopropyl)methyl)carbamoyl)-5-(trifluoromethyl)-1H-pyrazol-1-yl)-1-methylcyclohexanecarboxylic acid]
245	CC(C)CCN(CC(=O)c1c(Cl)cncc1Cl)C(=O)c1cnn([C@H]2C[C@@H]3[C@H](C2)[C@@H]3C(=O)O)c1C(F)(F)F [Example 765, (1R,3r,5S,6r)-3-(4-((2-(3,5-dichloro-4-pyridinyl)-2-oxoethyl)(3-methylbutyl)carbamoyl)-5-(trifluoromethyl)-1H-pyrazol-1-yl)bicyclo[3.1.0]hexane-6-carboxylic acid]
3.98	C[C@]1(C(=O)O)CC[C@H](n2ncc(C(=O)N(CC(=O)c3c(Cl)cccc3Cl)C3CC4(CCC4)C3)c2C(F)(F)F)CC1 [Example 632, trans-4-(4-((2-(2,6-dichlorophenyl)-2-oxoethyl)(spiro[3.3]hept-2-yl)carbamoyl)-5-(trifluoromethyl)-1H-pyrazol-1-yl)-1-methylcyclohexanecarboxylic acid]
